What was measured:
[1] = test system: phytohemagglutinin (PHA)-stimulated whole blood cell; details: cultivated; cited from earlier work
[2] = test system: 67 molecular targets including G-protein coupled receptors, ion channel-coupled receptors, transporters, ion channels and enzymes; test: In vitro safety evaluation, whole panel; details: andrographolide at a concentration of 25 μM in the herbal composition
Protocol: To confirm possible adverse effects, extensive in vitro studies covering a broad range of physical function-related 67 molecular targets including G-protein coupled receptors, ion channel-coupled receptors, transporters, ion channels and enzymes, were conducted. […] Interactions found in the primary assay can be indicative of in vivo side effects or safety.

C=C1CC[C@@H]2[C@](C)(CO)[C@H](O)CC[C@@]2(C)[C@@H]1C/C=C1/C(=O)OC[C@H]1O [andrographolide]
formation of TNFα and β2MG [1]: increase
side-effect in the in vitro safety evaluation [2]: no significant side-effect
